Reference: paper PMC9659204, “Biochemical Characterization of Pyranose Oxidase from Streptomyces canus—Towards a Better Understanding of Pyranose Oxidase Homologues in Bacteria” (International Journal of Molecular Sciences, 2022)

System: T1, ScPOx (pyranose oxidase from Streptomyces canus)
T1 construct: synthetic codon-optimised gene in pET-21d+ (NcoI/HindIII), C-terminal His6 tag, E. coli BL21(DE3); 52 kDa monomer, noncovalent FAD
Assay: steady-state kinetics, spectrophotometric
Type: biochemical
Conditions: apparent; electron acceptor; 4 M D-xylose as electron donor; 50 mM potassium phosphate pH 6.5; 30 °C
Excerpt: steady-state kinetics, spectrophotometric on ScPOx (pyranose oxidase from Streptomyces canus)

| SMILES | Km |
| --- | --- |
| O=C1C(Cl)=CC(=Nc2ccc(O)cc2)C=C1Cl [DCIP] | 50 ± 10 µM |
| O=C1C=CC(=O)C=C1 [p-BQ] | 130 ± 20 µM |
